The values that follow come from patent publication US7098228B2, “Indolyl derivatives” (Hoffmann-La Roche Inc., priority 2002, dated 2006).

For assay [1], the target named is T1, PPARγ (Mus musculus, UniProt P37238).
T1 sequence (P37238 204-505): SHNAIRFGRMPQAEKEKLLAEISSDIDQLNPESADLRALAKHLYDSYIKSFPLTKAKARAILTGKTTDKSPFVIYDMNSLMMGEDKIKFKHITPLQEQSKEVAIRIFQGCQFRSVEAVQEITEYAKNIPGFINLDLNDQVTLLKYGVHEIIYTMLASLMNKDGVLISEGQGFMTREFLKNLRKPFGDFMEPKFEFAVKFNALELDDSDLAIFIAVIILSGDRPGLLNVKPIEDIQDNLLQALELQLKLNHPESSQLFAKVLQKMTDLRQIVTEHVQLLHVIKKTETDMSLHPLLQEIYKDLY
Briefly: PPARγ radioligand binding assay (scintillation proximity, GST-PPARγ-LBD). On the set-up: made in house; host or cells: E. coli BL21 (pLysS). The source says:
(§1) Full-length cDNA clones for human PPARα and mouse PPARγ were obtained by RT-PCR from human adipose and mouse liver cRNA, respectively, cloned into plasmid vectors and verified by DNA sequencing. […] To accomplish this, the portions of the cloned sequences encoding the LBDs were amplified from the full-length clones by PCR and then subcloned into the plasmid vectors. Final clones were verified by DNA sequence analysis.
Induction, expression, and purification of GST-LBD fusion proteins were performed in E. coli strain BL21 (pLysS) cells by standard methods (Ref: Current Protocols in Molecular Biology, Wiley Press, edited by Ausubel et al.).
Radioligand Binding Assay
PPARγ receptor binding was assayed in TKE50 (50 mM Tris-HCl, pH 8, 50 mM KCl, 2 mM EDTA, 0.1 mg/ml fatty acid-free BSA and 10 mM DTT). For each 96 well reaction an 140 ng equivalent of GST-PPARγ-LBD fusion protein was bound to 10 ug SPA beads (PharmaciaAmersham) in a final volume of 50 ul by shaking. The resulting slurry was incubated for 1 h at RT and centrifuged for 2 min at 1300 g. The supernatant containing unbound protein was removed and the semidry pellet containig the recptor-coated beads was resolved in 50 ul of TKE. For radioligand binding e.g. 10000 dpm 2(S)-(2-benzoyl-phenylamino)-3-{4-[1,1-ditritio-2-(5-methyl-2-phenyl-oxazol-4-yl) -ethoxy]-phenyl}-propionic acid in 50 ul were added, the reaction incubated at RT for 1 h and scintillation proximity counting performed. All binding assays were performed in 96 well plates and the amount of bound ligand measured on a Packard TopCount using OptiPlates (Packard). Nonspecific binding was determined in the presence of 10^−4 M unlabelled compound. Dose response curves were done in triplicates within a range of concentration from 10^−10 M to 10^−4 M.

For assay [2], the target named is T1, PPARγ. The assay can be described thus: Luciferase transcriptional reporter gene assay, pFA-PPARγ-LBD in BHK21 cells. It counts as cell-based.
Text: as §1
(§2) Luciferase Transcriptional Reporter Gene Assays
(§3) Baby hamster kidney cells (BHK21 ATCC CCL10) were grown in DMEM medium containing 10% FBS at 37° C. in a 95% O2:5% CO2 atmosphere. Cells were seeded in 6 well plates at a density of 10^5 Cells/well and then batch-transfected with either the pFA-PPARγ-LBD or pFA-PPARα-LBD expression plasmids plus the pFR-luc reporter plasmid and an expression plasmid encoding the secretable form of alkaline phosphatase (SEAP) as a normalization control. […] Six hours following transfection, the cells were harvested by trypsinization and seeded in 96 well plates at a density of 10^4 cells/well. After 24 hours to allow attachment of cells, the medium was removed and replaced with 100 ul of phenol red-free medium containing the test substances or control ligands (final. 0.1% DMSO). Following incubation of the cells for 24 hours with substances, 50 ul of the supernatant was recovered and analyzed for SEAP activity (Roche Molecular Biochemicals). The remainder of the supernatant was discarded, 50 ul PBS was added per well followed by one volume of Luciferase Constant-Light Reagent (Roche Molecular Biochemicals) to lyse the cells and initiate the luciferase reaction. Luminescence for both SEAP and luciferase was measured in a Packard TopCount. Luciferase activity was normalized to the SEAP control and transcriptional activation in the presence of a test substance was expressed as fold-activation over cells incubated in the absence of the substance. EC50 values were calculated using the XLfit program (ID Business Solutions Ltd. UK).

A further assay addresses T2, PPARα (Homo sapiens, UniProt Q07869).
T2 construct: PPARα (aa 167 to 469); expressed in transfected cells; host or cells: BHK21 (ATCC CCL10)
T2 sequence (Q07869 167-468 limits assumed): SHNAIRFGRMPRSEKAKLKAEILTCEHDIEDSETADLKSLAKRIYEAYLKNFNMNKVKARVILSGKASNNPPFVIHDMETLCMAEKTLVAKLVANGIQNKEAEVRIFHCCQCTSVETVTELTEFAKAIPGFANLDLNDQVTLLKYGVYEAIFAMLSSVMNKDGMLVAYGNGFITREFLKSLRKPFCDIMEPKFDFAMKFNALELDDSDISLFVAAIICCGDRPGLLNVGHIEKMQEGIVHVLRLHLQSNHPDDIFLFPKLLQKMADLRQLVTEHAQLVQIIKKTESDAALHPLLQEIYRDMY
The assay can be described thus: Luciferase transcriptional reporter gene assay, pFA-PPARα-LBD in BHK21 cells. The format is cell-based.
Text: as §1, §2, §3

At PPARγ [1], `CCOC(Cc1cccc2c1ccn2Cc1nc(-c2cc(OC)cc(OC)c2)oc1C)C(=O)O` (racemic) [Example 1, rac-3-{1-[2-(3,5-Dimethoxy-phenyl)-5-methyl-oxazol-4-ylmethyl]-1H-indol-4-yl}-2-ethoxy-propionic acid] came in with an IC50 of 68 nM. Further, the EC50 on PPARγ [2] amounted to 7 nM; on PPARα, 8 nM.

`CCOC(Cc1cccc2c1ccn2Cc1nc(-c2ccc(C(C)C)cc2)oc1C)C(=O)O` (racemic) [Example 2, rac-2-Ethoxy-3-{1-[2-(4-isopropyl-phenyl)-5-methyl-oxazol-4-ylmethyl]-1H-indol-4-yl}-propionic acid]: the IC50 at PPARγ [1] stood at 53 nM. Besides, the EC50 stood at 93 nM at PPARγ [2] and 200 nM at PPARα.

At PPARα, `CCOC(Cc1cccc2c1ccn2CCCc1nc(-c2ccccc2)oc1C)C(=O)O` (racemic) [Example 3, rac-2-Ethoxy-3-{1-[3-(5-methyl-2-phenyl-oxazol-4-yl)-propyl]-1H-indol-4-yl}-propionic acid] displayed an EC50 of 190 nM.

`CCOC(Cc1cccc2c1ccn2Cc1nc(-c2ccc(C(F)(F)F)cc2)oc1C)C(=O)O` (racemic) [Example 10, rac-2-Ethoxy-3-{1-[5-methyl-2-(4-trifluoromethyl-phenyl)-oxazol-4-ylmethyl]-1H-indol-4-yl}-propionic acid] had an IC50 on PPARγ [1] of 1400 nM. Besides, the EC50 at PPARγ [2] was 140 nM; at PPARα it was 44 nM.
